Reference: patent publication US6596878B2, “Methods and compositions for inhibiting cell proliferative disorders” (Yissum Research & Development Company of the Hebrew …, priority 1994, dated 2003)
Values joined by “and” are separate entries in the source; they are usually repeats but may differ in a detail not shown here. Equal values may be shown once. Read-outs that look alike come from different tables or passages of the source.

Tests used:
[1] = system: NIH3T3 cells; experiment: 3T3 growth assay, NIH3T3C7 control cells; assay type: cell-based; conditions: Mus musculus, NIH3T3, 96 h, Table VI, 10% CS, 4 days
From the text: (§1) This example illustrates the ability of the exemplary compounds to inhibit receptor tyrosine kinases, such as HER2 and/or EGFR. The following target cells were used for cellular kinaseassays: NIH3T3 clone C7 (Honegger et al., supra) engineered to over-express human EGF receptor; NIH3T3 cells engineered to over-express a chimeric receptor containing the EGFR extracellular domain and the HER2 intracellular kinase domain; the human mammary carcinoma line BT474 (ATCC HTB2) expressing HER2; and the human glioblastoma line U1242 that expresses PDGFR-β. Growth assays were carried out using human mammary epithelial SKBR3 (ATCC HTB30) cells, SKOV3 (ATCC HTB77) human ovarian cancer cell line, A431 cells, MCF7 human breast carcinoma cells, MCF7 cells overexpress the HER2 kinase (MCF7-HER2), NIH3T3 cells, and NIH3T3 cells overexpressing the HER2 kinase (3T3-HER2).
The 3T3 growth assay was carried out as follows:
(1) Dulbecco's Modified Eagle Medium (D-MEM), Gibco 11965-050;
(4) Fetal Bovine Serum Certified, Gibco 16000-028;
(5) Dulbecco's Phosphate-Buffered Saline (D-PBS), Gibco 14190-029;
(6) Sulforhodamine B (SRB), Sigma S-9012. 0.4% SRB in 1% acetic acid;
(7) 10 mM Tris-base, Fisher BP152-5;
(8) 10% TCA, Trichloroacetic acid, Fisher A322-500;
(9) 96-well flat bottom plate (sterile), Corning 08-757-155;
(10) 100 ml reagent reservoir 9 (sterile), Matrix Technologies Corporation, 8086;
(11) Sterile pipet tips, Fisher 21-197-8E;
NIH3T3C7 cells in 10% CS+2 mM GLN DMEM HER2C7 cells in 2% FBS+2 mM GLN DMEM
(1) HER2C7 (engineered to express HER2) and NIH3T3C7 (as the control) cells are used for this assay. NIH3T3C7 cells are seeded at 2500 cells/well, […] in 10% CS+2 mM GLN DMEM, in a 96 well plate; HER2C7 cells are seeded at 6000 cells/well, 100 μl/well in 2% FBS+2 mM GLN DMEM, in a 96 well plate. Cells are incubated at 37° C., 5% CO2 overnight to allow for cell attachment to the plate;
(2) The test compound is added to the cells at day 2. The compounds are prepared in the appropriate growth medium (10% CS+2 mM) GLN DMEM for NIH3T3C7 cells; 2% FBS+2 mM GLN DMEM for HER2C7 cells) in a 96 well plate, and serially diluted. A total of 100 μl/well medium of the diluted compounds is added into the cells. The total volume of each well is 200 μl. Quadruplicates (wells) and 11 concentration points are applied to each compound tested.
(3) After the cells are treated with the compound for 4 days, the cells are washed with PBS and fixed with 200 μl/well ice-cold 10% TCA for one hour at 0-5° C. condition.
(4) Remove TCA and rinse wells 5 times with deionized water. Dry plates upside down with paper towels. Stain cells with 0.4% SRB at 100 μl/well for 10 minutes.
(5) Pour off SRB and rinse plate 5 times with 1% acetic acid. Dry plate completely.
(6) Solubilize the dye with 10 mM Tris-base at 100 μl/well for 10 minutes on a shaker.
(7) Read the plate at dual wavelengths at 570 nm and 630 nm on Dynatech Elisa plate reader.

[2] = biological target: T1, HER2 (Homo sapiens, UniProt P04626); experiment: HER2-BT474 whole cell kinase ELISA; assay type: cell-based
T1 construct: the human mammary carcinoma line BT474 (ATCC HTB2) expressing HER2; endogenous in cells; host or cells: BT474 human mammary carcinoma cells
Protocol: HER2-BT474 assays measuring whole cell HER2 activity was carried out as described below:
All the following steps are at room temperature and aseptically, unless stated otherwise. All ELISA plate washing is by rinsing with distilled water three times and once with TBST.
Incubate the cells in 5% CO2 at 37° C. overnight.
2. ELISA Plate Coating and Blocking

[3] = system: MCF7 cells overexpress the HER2 kinase (MCF7-HER2); experiment: MCF-7/HER-2 SRB growth assay; assay type: cell-based, human; conditions: Table VI, 0.5% FBS, four days
From the text: as §1
MCF-7 cells are seeded at 2000 cells/ well in a 96-well flat bottom plate in normal growth media, which was 10% FBS/RPMI supplemented with 2 mM Glutamine. The plate of cells is incubated for about 24 hours at 37° C. after which it receives an equal volume of compound dilution per well making the total volume per well 200 μl. The compound is prepared at 2 times the desired highest final concentration and serially diluted in the normal growth media in a 96-well round bottom plate and then transferred to plate of cells. DMSO serves as the vector control up to 0.2% as final concentration. The cells are then incubated at 37° C. in a humidified 5% CO2 incubator.
Four days following dosing of compound, the media is discarded and 200 μl/well of ice-cold 10% TCA (Trichloroacetic Acid) is added to fix cells. After 60 minutes at 4° C., the TCA is discarded and the plate is rinsed 5 times with water. The plate is then air-dried and 100 μl/well of 0.4% SRB (Sulforhodamine B from Sigma) in 1% Acetic Acid is added to stain cells for 10 minutes at room temperature. The SRB is discarded and the plate is rinsed 5 times with 1% Acetic Acid. After the plate is completely dried, 100 μl/well of 10 mM Tris-base is added to solubilize the dye. After 5 to 10 minutes, the plate is read on a Dynatech ELISA Plate Reader at dual wavelengths at 570 nm and 630 nm.
8. MCF-7/HER-2 SRB Growth Assay
The protocol is basically the same as that above (for the MCF-7 Growth Assay) except that immediately before the compound is added, the normal growth media is removed and 0.5% FBS/RPMI supplemented with 2 mM Glutamine is added onto the cells. The compound is also prepared in this 0.5% serum media. The plate of cells is incubated for four days and developed as usual.

[4] = Table V, read-out: Estimated IC50 Cellular Kinase Assays HER2 (BT474)
[5] = Table VI, cellular kinase assay, read-out: HER2-BT474

| Compound | IC50 [1] [µM] | IC50 [2, 4] | IC50 [2, 5] [µM] | IC50 ([3]; Homo sapiens, MCF7, 96 h) [nM] | fold greater inhibition of HER2 compared to EGF-R ([2]; as described in Example 1) [fold] | activity in cellular assays ([2]; cellular assays of the Examples, versus analogous compounds having bulkier R1 and R3 groups) | IC50 [3] [nM] |
| --- | --- | --- | --- | --- | --- | --- | --- |
| CC(C)(C)c1cc(/C=C(\C#N)C(N)=S)cc(C(C)(C)C)c1O [Compound M11] | 75 | < 3 µM | 3.1 | 200 |  |  |  |
| N#C/C(=C\c1ccc(O)c(O)c1)C(=S)NCc1ccccc1 [Compound M13] |  | 14 µM | 14 |  | ≥ 7 |  |  |
| N#C/C(=C\c1ccc(O)c(O)c1)C(=O)Nc1cccc(C(F)(F)F)c1 [Compound M15] |  | 16 µM | 16 | 6000 |  |  |  |
| N#C/C(=C\c1cc(O)c(O)c(I)c1)C(=O)NCCCc1ccccc1 [Compound M16] |  | 18 µM and 18.2 µM | 26 |  |  |  |  |
| CC(C)(C)c1cc(/C=C(\C#N)C(=O)NCCCc2ccccc2)cc(C(C)(C)C)c1O [Compound M20, (E)-3-(3,5-di-t-Butyl-4-hydroxyphenyl)-2-[(3-phenyl-n-propyl)aminocarbonyl]acrylonitrile] | 90 |  | 3 | 600 |  |  |  |
| CC(C)c1cc(/C=C(\C#N)C(=O)NCCCc2ccccc2)cc(C(C)C)c1O [Compound M21, (E)-3-(3,5-Diisopropyl-4-hydroxyphenyl)-2-[(3-phenyl-n-propyl)aminocarbonyl]acrylonitrile] | > 100 |  | 7.4 | 2000 |  |  |  |
| CC(C)c1cc(C=C(C#N)C(N)=C(C#N)C#N)cc(C(C)C)c1O [Compound M22, (E)-2-(1-Amino-2,2-dicyanoethenyl-3-(3,5-diisopropyl-4-hydroxyphenyl)acrylonitrile)] |  |  | 4.2 | 9000 |  |  |  |
| CC(C)c1cc(/C=C(\C#N)C(=S)NCCCc2ccccc2)cc(C(C)C)c1O [Compound M24, (E)-3-(3,5-Diisopropyl-4-hyrdroxyphenyl)-2-[(3-phenyl-n-propyl)aminothiocarbonyl]acrylonitrile] |  |  | 3.1 | 1000 |  |  |  |
| CC(C)c1cc(/C=C(\C#N)S(=O)(=O)c2ccccn2)cc(C(C)C)c1O [Compound M26] | > 100 |  | 9.6 |  |  |  |  |
| CC(C)c1cc(/C=C(\C#N)S(=O)(=O)CC#N)cc(C(C)C)c1O [Compound M27] | > 100 |  | 4.6 | 6000 |  |  |  |
| CC(C)c1cc(/C=C(\C#N)S(=O)(=O)/C(C#N)=C/c2cc(C(C)C)c(O)c(C(C)C)c2)cc(C(C)C)c1O [Compound M29] | > 100 |  | 1.4 | 2000 |  |  |  |
| CC(C)c1cc(/C=C(\C#N)S(=O)(=O)c2ccccc2)cc(C(C)C)c1O [Compound M30] | 70 |  | 0.65 | 2000 |  |  |  |
| Cc1cc(/C=C(\C#N)S(=O)(=O)c2ccccc2)cc(C)c1O [Compound M31] | > 100 |  | 5.4 |  |  | less activity |  |
| Cc1cc(/C=C(\C#N)S(=O)(=O)c2ccccn2)cc(C)c1O [Compound M32] | > 100 |  | 7.3 | > 50000 |  |  |  |
| CC(C)(C)c1cc(/C=C(\C#N)S(=O)(=O)c2ccccc2)cc(C(C)(C)C)c1O [Compound M33, (E)-3-(3,5-di-t-Butyl-4-hydroxyphenyl)-2-(phenylsulfonyl)acrylonitrile] | 35 |  | 0.17 | 50 |  |  |  |
| CC(C)(C)c1cc(/C=C(\C#N)S(=O)(=O)c2ccccn2)cc(C(C)(C)C)c1O [Compound M34, (E)-3-(3,5-di-t-Butyl-4-hydroxyphenyl)-2-[(pyrid-2-yl)sulfonyl]acrylonitrile] | 40 |  | 0.11 | 60 |  |  |  |
| CC(C)(C)c1cc(/C=C(\C#N)C(=O)Nc2ccc(C(F)(F)F)cc2)cc(C(C)(C)C)c1O [Compound M35, (E)-3-(3,5-di-t-Butyl-4-hydroxyphenyl)-2-[(4-trifluoromethyl)phenylaminocarbonyl]acrylonitrile] | 18 |  | 0.29 | 90 |  |  |  |
| CC(C)(C)c1cc(/C=C(\C#N)S(=O)(=O)CC#N)cc(C(C)(C)C)c1O [Compound M36, (E)-3-(3,5-di-t-Butyl-4-hydroxyphenyl)-2-(cyanomethylsulfonyl)acrylonitrile] |  |  | 0.4 | 2000 |  |  |  |
| (E,E)-2-[[-Cyano-2-(3,5-diisopropyl-4-hydroxyphenyl)ethenyl]sulfonyl]-3-(3,5-di-t-butyl-4-hydroxyphenyl)acrylonitrile [Compound M37] |  |  | 0.85 |  |  |  | 1000 |
